From patent US7157582B2, “Selective iGluR5 receptor antagonists” (Eli Lilly and Company, priority 1999, dated 2007)

Tests used:
[1] = tested on: dural protein extravasation; assay: Animal model of dural protein extravasation (rat); format: in vivo; settings: for Inhibition of Dural Protein Extravasation ID50: rat, i.v.
Description: (§1) The following animal model was employed to determine the ability of each of the panel of compounds to inhibit protein extravasation, an exemplary functional assay of the neuronal mechanism of migraine.
Harlan Sprague-Dawley rats (225–325 g) or guinea pigs from Charles River Laboratories (225–325 g) were anesthetized with sodium pentobarbital intraperitoneally (65 mg/kg or 45 mg/kg respectively) and placed in a stereotaxic frame (David Kopf Instruments) with the incisor bar set at −3.5 mm for rats or −4.0 mm for guinea pigs. Following a midline sagital scalp incision, two pairs of bilateral holes were drilled through the skull (6 mm posterially, 2.0 and 4.0 mm laterally in rats; 4 mm posteriorly and 3.2 and 5.2 mm laterally in guinea pigs, all coordinates referenced to bregma). Pairs of stainless steel stimulating electrodes, insulated except at the tips (Rhodes Medical Systems, Inc.), were lowered through the holes in both hemispheres to a depth of 9 mm (rats) or 10.5 mm (guinea pigs) from dura.
The femoral vein was exposed and a dose of the test compound was injected intravenously (i.v.) at a dosing volume of 1 ml/Kg or, in the alternative, test compound was administered orally (p.o) via gavage at a volume of 2.0 ml/Kg. Approximately 7 minutes post i.v. injection, a 50 mg/Kg dose of Evans Blue, a fluorescent dye, was also injected intravenously. The Evans Blue complexed with proteins in the blood and functioned as a marker for protein extravasation. Exactly 10 minutes post-injection of the test compound, the left trigeminal ganglion was stimulated for 3 minutes at a current intensity of 1.0 mA (5 Hz, 4 msec duration) with a Model 273 potentiostat/galvanostat (EG&G Princeton Applied Research).
Fifteen minutes following stimulation, the animals were killed and exsanguinated with 20 mL of saline. The top of the skull was removed to facilitate the collection of the dural membranes. […]
(§2) A fluorescence microscope (Zeiss) equipped with a grating monchromator and a spectrophotometer was used to quantify the amount of Evans Blue dye in each sample. An excitation wavelength of approximately 535 nm was utilized and the emission intensity at 600 nm was determined. […] This facilitated the computer-controlled movement of the stage with fluorescence measurements at 25 points ([…]) on each dural sample. The mean and standard deviation of the measurements were determined by the computer.
(§3) The extravasation induced by the electrical stimulation of the trigeminal ganglion was an ipsilateral effect (i.e. occurs only on the side of the dura in which the trigeminal ganglion was stimulated). […] The ratio of the amount of extravasation in the dura from the stimulated side, over the amount of extravasation in the unstimulated side, was calculated. […]

[2] = tested on: dural protein extravasation; assay: Animal model of dural protein extravasation (guinea pig); format: in vivo; settings: Gpig (guinea pig), i.v.
Description: as §1
Harlan Sprague-Dawley rats (225–325 g) or guinea pigs from Charles River Laboratories (225–325 g) were anesthetized with sodium pentobarbital intraperitoneally (65 mg/kg or 45 mg/kg respectively) and placed in a stereotaxic frame (David Kopf Instruments) with the incisor bar set at −3.5 mm for rats or −4.0 mm for guinea pigs. […]
as §2, §3

O=C(O)[C@@H]1C[C@H]2C[C@@H](COCc3nnn[nH]3)CC[C@H]2CN1 [Compound II, 3S,4aR,6S,8aR-6-((((1H-Tetrazole-5-yl)methyl)oxy)methyl)-1,2,3,4,4a,5,6,7,8,8a-decahydroisoquinoline-3-carboxylic acid]
Inhibition of Dural Protein Extravasation ID50 [1]: 15 (rat) ng/Kg

CCOC(=O)[C@@H]1C[C@H]2C[C@@H](CN3CC(F)(F)C[C@H]3C(=O)OCC)CC[C@H]2CN1 [Compound IV(b), 3S,4aR,6S,8aR Ethyl 6-(((2S)-2-(Ethoxycarbonyl)-4,4-difluoropyrrolidinyl)methyl)-1,2,3,4,4a,5,6,7,8,8a-decahydroisoquinoline-3-carboxylate]
Inhibition of Dural Protein Extravasation ID100 ([1]; p.o., species not given): 1e-05 µg/kg

O=C(O)[C@@H]1C[C@H]2C[C@@H](CCSc3nnn[nH]3)CC[C@H]2CN1 [Compound III]
Inhibition of Dural Protein Extravasation ID50 [1]: .0053 (rat) ng/Kg

O=C(O)c1ccc(C[C@H]2CC[C@H]3CN[C@H](C(=O)O)C[C@H]3C2)cc1 [Compound I, 3S,4aR,6S,8aR-6-(((4-carboxy)phenyl)methyl)-1,2,3,4,4a,5,6,7,8,8a-decahydroisoquinoline-3-carboxylic acid]
Inhibition of Dural Protein Extravasation ID50 [1]: 6.5 (rat), ng/Kg
Inhibition of Dural Protein Extravasation ID50 [2]: 4.0 (Gpig) ng/Kg
